# Measured values taken from publication PMC8231113, “Protein Secondary Structure Affects Glycan Clustering in Native Mass Spectrometry” (Life, 2021).
# Where two headings read alike, the source gives them in different places.
# Key:
# [1] = target: T1, myoglobin from equine heart (Myo) (Equus caballus, UniProt P68082); assay: Native MS glycan clustering to reference protein Myo; type: binding; conditions: on Myo
# T1 construct: myoglobin from equine heart (Myo, CAS number 100684-32-0); purchased Sigma-Aldrich (Merck, Germany); host or cells: equine heart
# Protocol: (§1) Prior to MS analysis, purified P dimers were buffer exchanged to 150 mM ammonium acetate (Sigma-Aldrich, reagent grade ≥98%) at pH 7 via centrifugal filter units at 12,000× g at 4 °C (Vivaspin 500, MWCO 10000, Sartorius). Glycans for native MS analysis were mixed with 1 µM (per monomer) purified GII.4 Saga P dimer and 3 µM of the reference proteins at indicated concentrations. Native mass spectra were measured at room temperature in positive ion mode on a high mass modified LCT Premier mass spectrometer (Waters/Micromass, UK and MS Vision, the Netherlands) with a nano-ESI source. In house-made gold-coated electrospray capillaries were used for direct-sample infusion without any accessory chromatographic separation. The voltages and pressures were optimized for non-covalent protein complexes. The gas pressure used in the source hexapole was set between 6.5 and 6.8 × 10^−2 mbar argon optimized for minimal complex dissociation and the backing pressure of the source roughing pump was set between 7.0 and 8.5 mbar. Spectra were recorded with applied voltages for the capillary and cone of 1.20 kV and 240 V, respectively. Note that charge state distributions for P dimers were sometimes slightly shifted as was the degree of glycan clustering per charge state. These changes were highly variable and not quantifiable.
# (§2) For calibration of the raw data, a 25 mg/mL cesium iodide spectrum from the same day was used. MassLynx V4.1 (Waters, Manchester, UK) was used to assign peak series to protein species and to determine the mass after minimal smoothing. Furthermore, OriginPro 2016 SR2 (OriginLab, Northampton, MA, USA) was used for spectral deconvolution and curve fitting. Correction for nonspecific protein-ligand clustering was performed as described. Corrected peak areas were averaged and normalized to the free-protein signal. Data were based on at least three independent measurements. Python code Panda and Numpy package were used to calculate the specific binding of P dimers according to the glycan clustering ratio obtained from the selected reference protein candidates. Seaborn and matplotlib.pyplot package were imported into a python script to plot the results. The module of sklearn.linear model was applied for linear regression. The matplotlib and heatmap package were used to plot the heatmap.
# (§3) Theoretically, the KD is calculated by measuring the concentration of the three components (Pfree, Lfree, PL) in solution. Usually, these values are only indirectly accessible because they require ligand titration up to binding saturation. However, native MS allows for the directly measurement of Pfree and PL, from which Lfree can be calculated using the input concentrations. In the present work, the non-covalent interaction was measured in the gas phase assuming identical ESI and detection efficiency for free and glycan-associated proteins, both for the analyte and the reference protein. […] For P dimers, the equations reflect glycan binding to the individual monomers assuming that binding sites on each monomer are equal and independent.
# (§4) Using R described in Equation (3), the KD calculation can be re-written into Equation (4) with the known initial concentration of glycan ligand [L0] and protein [P0], adapted from Sun et al.:(3) R=PLequil∕Pequil=∑nA(PL^n+)∕n∕∑nA(P^n+)∕n (4) KD =L0−RP0/1+R/R
# (§5) For the carbohydrate-binding experiments, it was essential to keep the initial protein concentrations and pH value constant during the analysis of the protein-carbohydrate solutions. While acidification occurs in any ESI droplet, the remaining solution in the capillary changes pH over time. Therefore, accumulated spectra were obtained within 10 min after the voltages were applied to minimize the influence of pH changes during the measurements. […]
# [2] = target: GII.4 Saga P dimer (Norovirus GII.4 (human norovirus), UniProt B5BTR7); assay: Native MS, specific glycan binding to P dimer after reference protein correction; set-up: species or system human norovirus (hNoV); conditions: for Kd: read-out: KD for HBGA B
# Protocol: as §1, §2
# Data from native ESI MS measurements were translated into dissociation constants (KD values). The detailed calculations were based on the equations listed below. A protein (P) and a glycan ligand (L) form a complex through non-covalent interactions leading to a reversible association described by (Equation (1)):(1) P+L⇌PL when equilibrium is reached, the KD can be calculated directly from the concentrations via the law of mass action (Equation (2)):(2) KD=[Pfree][Lfree]/[PL]
# as §3
# Using R described in Equation (3), the KD calculation can be re-written into Equation (4) with the known initial concentration of glycan ligand [L0] and protein [P0], adapted from Sun et al.:(3) R=PLequil∕Pequil=∑nA(PL^n+)∕n∕∑nA(P^n+)∕n (4) KD =L0−RP0/1+R/R […]
# [3] = target: T2, carbonic anhydrase isozyme II from bovine erythrocytes (CA) (Bos taurus, UniProt P00921); assay: Native MS glycan clustering to reference protein CA; type: binding; conditions: on CA
# T2 construct: carbonic anhydrase isozyme II from bovine erythrocytes (CA, CAS number 9001-03-0); purchased Sigma-Aldrich (Merck, Germany); host or cells: bovine erythrocytes
# Protocol: as §1, §2, §3, §4, §5
# [4] = target: T3, human apo-transferrin (apo-TFF) (Homo sapiens, UniProt P02787); assay: Native MS glycan clustering to reference protein apo-TFF; type: binding; conditions: on apo-TFF
# T3 construct: purchased Sigma-Aldrich (Merck, Germany)
# Protocol: as §1, §2, §3, §4, §5
# T2 sequence (P00921 whole entry): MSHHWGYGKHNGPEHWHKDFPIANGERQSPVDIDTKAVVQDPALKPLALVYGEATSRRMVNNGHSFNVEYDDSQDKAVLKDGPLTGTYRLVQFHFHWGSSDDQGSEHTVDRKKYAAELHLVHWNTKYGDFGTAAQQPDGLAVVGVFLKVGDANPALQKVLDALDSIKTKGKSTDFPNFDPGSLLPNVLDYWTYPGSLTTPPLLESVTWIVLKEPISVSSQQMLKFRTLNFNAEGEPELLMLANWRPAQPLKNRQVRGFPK
# T1 sequence (P68082 whole entry): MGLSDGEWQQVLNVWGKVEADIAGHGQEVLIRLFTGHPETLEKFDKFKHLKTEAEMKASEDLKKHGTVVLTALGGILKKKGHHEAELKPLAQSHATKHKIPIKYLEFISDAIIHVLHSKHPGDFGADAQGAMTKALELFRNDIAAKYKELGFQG
# T3 sequence (P02787 20-698): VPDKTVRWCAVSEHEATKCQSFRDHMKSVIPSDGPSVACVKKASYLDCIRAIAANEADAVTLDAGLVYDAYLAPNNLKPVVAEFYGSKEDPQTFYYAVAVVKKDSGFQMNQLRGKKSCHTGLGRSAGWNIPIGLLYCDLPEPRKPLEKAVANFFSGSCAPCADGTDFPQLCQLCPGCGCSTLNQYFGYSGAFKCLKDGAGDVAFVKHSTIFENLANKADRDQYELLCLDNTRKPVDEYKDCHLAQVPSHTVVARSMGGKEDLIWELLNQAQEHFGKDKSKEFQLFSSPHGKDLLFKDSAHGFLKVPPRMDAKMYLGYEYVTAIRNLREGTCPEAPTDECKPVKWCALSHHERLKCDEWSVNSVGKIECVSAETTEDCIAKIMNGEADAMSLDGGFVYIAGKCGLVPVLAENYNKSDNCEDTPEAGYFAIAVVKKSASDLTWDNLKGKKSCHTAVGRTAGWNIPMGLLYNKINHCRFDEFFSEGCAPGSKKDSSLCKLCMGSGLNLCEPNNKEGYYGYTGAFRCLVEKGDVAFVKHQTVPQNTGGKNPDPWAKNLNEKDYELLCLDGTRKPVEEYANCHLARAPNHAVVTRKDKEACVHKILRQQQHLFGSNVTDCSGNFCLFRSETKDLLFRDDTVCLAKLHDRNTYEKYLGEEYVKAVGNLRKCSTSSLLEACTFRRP
smiles,measurement,setting,value
"CC(=O)N[C@H]1C(O)O[C@H](CO)[C@@H](O)[C@@H]1O[C@@H]1O[C@H](CO)[C@H](O)[C@H](O[C@H]2O[C@H](CO)[C@H](O)[C@H](O)[C@H]2O)[C@H]1O[C@@H]1O[C@@H](C)[C@@H](O)[C@@H](O)[C@@H]1O (some centres unmarked) [HBGA B, Galα1-3(Fucα1-2)Galβ1-3GlcNAc]",Glycan-Clustering Ratio R,[1]; 100 µM glycan,0.14±0.03
same,Glycan-Clustering Ratio R,[1]; 200 µM glycan,0.18±0.02
same,Glycan-Clustering Ratio R,[1]; 300 µM glycan,0.19±0.06
same,Glycan-Clustering Ratio R,[1]; 400 µM glycan,0.31±0.04
same,Glycan-Clustering Ratio R,[1]; 500 µM glycan,0.36 ± 0.05
same,specific binding after ADH based protein clustering correction,"[2]; Gb4: any listed glycan concentration, HBGA B: 500 µM",a single binding event
same,Kd,[2]; correction with ref. protein ADH,24000 ± 16000 µM
same,Kd,[2]; correction with ref. protein CA,400 ± 100 µM
same,Kd,[2]; correction with ref. protein Cyt c,160 ± 50 µM
same,Kd,[2]; correction with ref. protein GFP,900 ± 350 µM
same,Kd,[2]; correction with ref. protein Myo,250 ± 100 µM
same,Kd,[2]; correction with ref. protein Ubq,200 ± 130 µM
same,Bound number of carbohydrates on Saga P dimer,"[2]; ref. protein ADH, glycan 100 µM",0
same,Bound number of carbohydrates on Saga P dimer,"[2]; ref. protein ADH, glycan 200 µM",0
same,Bound number of carbohydrates on Saga P dimer,"[2]; ref. protein ADH, glycan 300 µM",0
same,Bound number of carbohydrates on Saga P dimer,"[2]; ref. protein ADH, glycan 400 µM",0
same,Bound number of carbohydrates on Saga P dimer,"[2]; ref. protein ADH, glycan 500 µM",1
same,Bound number of carbohydrates on Saga P dimer,"[2]; ref. protein CA, glycan 100 µM",1
same,Bound number of carbohydrates on Saga P dimer,"[2]; ref. protein CA, glycan 200 µM",2
same,Bound number of carbohydrates on Saga P dimer,"[2]; ref. protein CA, glycan 300 µM",2
same,Bound number of carbohydrates on Saga P dimer,"[2]; ref. protein CA, glycan 400 µM",2
same,Bound number of carbohydrates on Saga P dimer,"[2]; ref. protein CA, glycan 500 µM",2
same,Bound number of carbohydrates on Saga P dimer,"[2]; ref. protein Cyto c, glycan 100 µM",2
same,Bound number of carbohydrates on Saga P dimer,"[2]; ref. protein Cyto c, glycan 200 µM",3
same,Bound number of carbohydrates on Saga P dimer,"[2]; ref. protein Cyto c, glycan 300 µM",4
same,Bound number of carbohydrates on Saga P dimer,"[2]; ref. protein Cyto c, glycan 400 µM",4
same,Bound number of carbohydrates on Saga P dimer,"[2]; ref. protein Cyto c, glycan 500 µM",4
same,Bound number of carbohydrates on Saga P dimer,"[2]; ref. protein GFP, glycan 100 µM",1
same,Bound number of carbohydrates on Saga P dimer,"[2]; ref. protein GFP, glycan 200 µM",1
same,Bound number of carbohydrates on Saga P dimer,"[2]; ref. protein GFP, glycan 300 µM",2
same,Bound number of carbohydrates on Saga P dimer,"[2]; ref. protein GFP, glycan 400 µM",2
same,Bound number of carbohydrates on Saga P dimer,"[2]; ref. protein GFP, glycan 500 µM",2
same,Bound number of carbohydrates on Saga P dimer,"[2]; ref. protein LDH, glycan 100 µM",0
same,Bound number of carbohydrates on Saga P dimer,"[2]; ref. protein LDH, glycan 200 µM",0
same,Bound number of carbohydrates on Saga P dimer,"[2]; ref. protein LDH, glycan 300 µM",0
same,Bound number of carbohydrates on Saga P dimer,"[2]; ref. protein LDH, glycan 400 µM",0
same,Bound number of carbohydrates on Saga P dimer,"[2]; ref. protein LDH, glycan 500 µM",1
same,Bound number of carbohydrates on Saga P dimer,"[2]; ref. protein Myo, glycan 100 µM",2
same,Bound number of carbohydrates on Saga P dimer,"[2]; ref. protein Myo, glycan 200 µM",3
same,Bound number of carbohydrates on Saga P dimer,"[2]; ref. protein Myo, glycan 300 µM",3
same,Bound number of carbohydrates on Saga P dimer,"[2]; ref. protein Myo, glycan 400 µM",3
same,Bound number of carbohydrates on Saga P dimer,"[2]; ref. protein Myo, glycan 500 µM",4
same,Bound number of carbohydrates on Saga P dimer,"[2]; ref. protein Ubq, glycan 100 µM",2
same,Bound number of carbohydrates on Saga P dimer,"[2]; ref. protein Ubq, glycan 200 µM",3
same,Bound number of carbohydrates on Saga P dimer,"[2]; ref. protein Ubq, glycan 300 µM",4
same,Bound number of carbohydrates on Saga P dimer,"[2]; ref. protein Ubq, glycan 400 µM",4
same,Bound number of carbohydrates on Saga P dimer,"[2]; ref. protein Ubq, glycan 500 µM",4
same,Bound number of carbohydrates on Saga P dimer,"[2]; ref. protein apo-TFF, glycan 100 µM",1
same,Bound number of carbohydrates on Saga P dimer,"[2]; ref. protein apo-TFF, glycan 200 µM",1
same,Bound number of carbohydrates on Saga P dimer,"[2]; ref. protein apo-TFF, glycan 300 µM",1
same,Bound number of carbohydrates on Saga P dimer,"[2]; ref. protein apo-TFF, glycan 400 µM",1
same,Bound number of carbohydrates on Saga P dimer,"[2]; ref. protein apo-TFF, glycan 500 µM",2
same,Glycan-Clustering Ratio R,[3]; 100 µM glycan,0.22±0.03
same,Glycan-Clustering Ratio R,[3]; 200 µM glycan,0.32±0.05
same,Glycan-Clustering Ratio R,[3]; 300 µM glycan,0.40±0.04
same,Glycan-Clustering Ratio R,[3]; 400 µM glycan,0.60±0.05
same,Glycan-Clustering Ratio R,[3]; 500 µM glycan,0.75 ± 0.07
same,Glycan-Clustering Ratio R,[4]; 100 µM glycan,0.37±0.03
same,Glycan-Clustering Ratio R,[4]; 200 µM glycan,0.56±0.05
same,Glycan-Clustering Ratio R,[4]; 300 µM glycan,0.62±0.03
same,Glycan-Clustering Ratio R,[4]; 400 µM glycan,0.74±0.01
same,Glycan-Clustering Ratio R,[4]; 500 µM glycan,0.82 ± 0.03
